Assay results taken from PubChem BioAssay AID1320 (NMMLSC, 2008).
Active and inactive are the calls of the source. How the calls were made is not given here.

molecular target: Bcl-2-related protein A1 (Homo sapiens) (UniProt Q16548); experiment: inhibitors of Bim binding to Bfl-1, dose response, biochemical, multiplexed, bead-based flow cytometry (AID 1320); conditions: Bim peptide-Bfl-1 binding, fluorescence; on percent span (inhibition): test concentration not given here
Sequence (Q16548 whole entry, looked up): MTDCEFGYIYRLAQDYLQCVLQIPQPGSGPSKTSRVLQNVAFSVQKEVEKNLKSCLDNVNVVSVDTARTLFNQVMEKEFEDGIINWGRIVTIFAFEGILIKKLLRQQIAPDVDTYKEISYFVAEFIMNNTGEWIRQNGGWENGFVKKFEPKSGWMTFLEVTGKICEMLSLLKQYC

SMILES	EC50
Cc1cccc(N2C(S)=C(C#N)C(=O)NC2c2cccs2)c1 (centres undefined)	inactive

same assay, conditions: Bim peptide-Bfl-1 binding, fluorescence

SMILES	percent span (inhibition)
Cc1cc(Cl)ccc1N=c1ssnc1Cl	inactive
COC(=O)CCC(=O)Nc1sc(C)c(C)c1C(N)=O	inactive
Cc1ccc(S(=O)(=O)N2CCCCC2)cc1NC(=O)COC(=O)c1ccccc1F	inactive
Cc1csc(SCCn2c(N3CCN(c4ccccc4)CC3)nc3c2c(=O)[nH]c(=O)n3C)n1	inactive
Cc1ccnc(NS(=O)(=O)c2ccc(NC(=O)c3c(-c4ccccc4Cl)noc3C)cc2)n1	inactive
COc1cccc(/C=N/NC(=O)c2cc3cc([N+](=O)[O-])ccc3s2)c1O	inactive
FC(F)(F)c1ccc2c(c1)C1C=CCC1C(c1ccncc1)N2 (centres undefined)	inactive
Cc1ccc(-c2cc(C(=O)Nc3cc(C(=O)O)ccc3C)c3ccccc3n2)cc1	inactive
CC(C)Cc1cc(-c2ccco2)c(C#N)c(N)n1	inactive
O=C(N/N=C/c1cccc([N+](=O)[O-])c1)c1cccs1	inactive
CC(C)C(=O)N1CCN(c2ccc([N+](=O)[O-])cc2Cl)CC1	inactive
Cc1ccnc(Nc2nc(-c3c(C)nc4sccn34)cs2)c1	inactive
COc1ccc(-c2csc(NC(=O)/C(N=Nc3ccccc3)=C(\C)O)n2)cc1	inactive
COc1cc(/C=N/NC(=O)CN(Cc2ccco2)S(=O)(=O)c2ccccc2)ccc1O	inactive
CCCCc1ccc(NC(=S)NCc2ccc(OC)cc2)cc1	inactive
Cc1cc(C)cc(NS(=O)(=O)c2ccc3c(c2)c(=O)n(C)c(=O)n3C)c1	inactive
CN1C(=O)/C(=C/c2ccc(-c3ccccc3[N+](=O)[O-])o2)SC1=Nc1ccc(Cl)c(C(=O)O)c1	inactive
CC(C)(C)C(=O)NC(NC(=S)Nc1ccc(S(N)(=O)=O)cc1)C(Cl)(Cl)Cl (centres undefined)	inactive
O=C(Oc1ccc(-c2cnc3ccccc3n2)cc1)c1cccc([N+](=O)[O-])c1	inactive
Cc1cc(N2CCN(C)CC2)nc2ccc(NC(=S)N3CCCCC3)cc12	inactive
CN(C)C(Cc1ccccc1)C(=O)c1cccs1 (centres undefined)	inactive
COc1ccccc1NC(=O)CSc1ncn(-c2ccccc2)n1	inactive
COc1ccccc1C1=Nc2cccc3cccc(c23)N1	inactive
O=C(NC1=NCCS1)NC12CC3CC(CC(C3)C1)C2	inactive
Cc1cccc(/C=N/N(CCO)C2=NS(=O)(=O)c3ccccc32)c1	inactive

SMILES	percent span (inhibition)
Cc1cc(-c2nnc3n2N=C(c2ccc(-c4ccccc4)cc2)CS3)n[nH]1	inactive
CC(C)CCN1CCN(Cc2cccc3cccnc23)CC1CCO (centres undefined)	inactive
O=C(Nc1n[nH]c(C(F)(F)F)n1)C1CC1	inactive
Cc1cc(C)nc(/N=c2/ssnc2Cl)c1	inactive
CNC(=O)/C(C#N)=C/c1c(N(Cc2ccccc2)Cc2ccccc2)nc2c(C)cccn2c1=O	inactive
Cc1cc(NC(=O)CSc2nnc(-c3cccnc3)n2Cc2ccccc2)no1	inactive
COCCCn1c(N)c(C(=O)Nc2sc3c(c2C(=O)OC)CCCC3)c2nc3ccccc3nc21	inactive
COc1cc(/C=N/Nc2nc3c(c(=O)n(C)c(=O)n3C)n2Cc2ccccc2)ccc1OC(=O)c1ccco1	inactive
O=C(C1=C(Nc2ccccc2)c2ccccc2S(=O)(=O)N1)c1ccccc1	inactive
Cc1c(Cc2ccccc2)sc(N)c1C(N)=O	inactive
COc1ccc(S(=O)(=O)NCCSc2ccccc2)cc1OC	inactive
O=C1C(Cl)=C(Nc2ccccc2O)C(=O)N1c1ccccc1	inactive
CNC(=O)CC1C(=O)N(Cc2ccccc2)C(=S)N1NC(=O)c1cccc(F)c1 (centres undefined)	inactive
CCOc1ccc(CNc2ccc(N3CCCC3)cc2)cc1	inactive
CN(C)[C@@H]1C(=O)C(C(=O)NCN2CCCC2)=C(O)[C@@]2(O)C(=O)C3=C(O)c4c(O)cccc4[C@@](C)(O)C3CC12 (some centres undefined)	inactive
O=C(c1cc2ccccc2oc1=O)N(c1ccccc1)C1C=CS(=O)(=O)C1 (centres undefined)	inactive
N/C(=N\N=C/c1ccc(Br)cc1)N/N=C\c1ccc(Br)cc1	inactive
Cc1ccc(C)c(Oc2ncnc(N)c2[N+](=O)[O-])c1	inactive
Cc1cc(N2CCN(C)CC2)nc2ccc(NC(=S)N3CCN(c4cccc(Cl)c4)CC3)cc12	inactive
C=CCN1C(=O)/C(=C/c2ccsc2)SC1=S	inactive
COc1ccc(NC(=O)Cc2c(F)cccc2Cl)c(OC)c1	inactive
CC(=O)c1ccc2c(c1)C1C=CCC1C(c1ccncc1)N2 (centres undefined)	inactive
Cc1cc(N/C(=N/S(=O)(=O)c2cc(F)ccc2F)c2ccccc2)n(-c2ccccc2)n1	inactive
CCCCC(C(=O)OCC)C(N)Cc1ccc(F)cc1 (centres undefined)	inactive
CC(C)COC(=O)/C(C#N)=C/c1cn(Cc2ccccc2)c2ccccc12	inactive

SMILES	percent span (inhibition)
O=C1c2ccccc2C(=O)N1c1cccc2cccnc12	inactive
CC(C)(C)C1CCC(=NNC(=O)c2cc3c(s2)CCCC3)CC1 (centres undefined)	inactive
COc1ccc(OC)c(NC(=O)CCCN2C(=S)NC(C)(C)CC2C)c1 (centres undefined)	inactive
Cc1cccc(-c2nnc3n2N=C(c2ccccc2)CS3)c1	inactive
CSc1n[nH]c2nc3c(c(=O)n12)C1(CCCC1)Cc1ccccc1-3	inactive
COc1ccc(-c2nnc(SCC(=O)Nc3nc4ccccc4s3)n2C)cc1	inactive
C=CCn1c(C)cc(-c2csc(NC)n2)c1C	inactive
COc1ccc(N2CCN(CCCNC(=O)CCCn3c(=O)[nH]c4ccsc4c3=O)CC2)cc1	inactive
O=C(Cc1ccc(-c2ccccc2)cc1)NC1CCCC1	inactive
Cc1ccc2c(C)c(C(=O)Nc3nnc(C)s3)oc2c1	inactive
O=C(CSc1nnc(-c2cccs2)n1Cc1ccco1)c1ccc2c(c1)OCO2	inactive
Fc1cccc(Nc2nc(-c3ccncc3)nc3ccccc23)c1	inactive
O=C(/C=C/c1ccc(-c2ccccc2)o1)c1ccccc1	inactive
Cc1nnc(NCc2n[nH]c(=O)c3ccccc23)c2ccccc12	inactive
Cc1nn(-c2ccc(Cl)c(Cl)c2)c(C)c1C(=O)O	inactive
CC1=CC(=O)c2ccccc2C1=O	inactive
CCSc1nnc(NC(=O)c2c(-c3ccccc3Cl)noc2C)s1	inactive
Clc1ccc(N=c2ssnc2Cl)nc1	inactive
CC(NC(=O)Nc1ccccn1)N1C(=O)C2C3C=CC(C3)C2C1=O (centres undefined)	inactive
CCOC(=O)/C(=C\c1ccc(Cl)cc1)c1nc2sc(C)c(C)c2c(=O)[nH]1	inactive
Cc1ccc(CNc2ccc3c(c2)OCO3)c(C)c1	inactive
CC1(C)CC(NC(=O)COc2ccc([N+](=O)[O-])cc2)CC(C)(C)N1	inactive
CN(C(=O)NC1CCCCC1)c1ccccc1	inactive
O=C(CNC(=O)c1ccco1)NCC(=O)OCc1ccccc1Br	inactive
COc1ccccc1-n1c(SCC(=O)N2CCc3ccccc32)nc2c(c1=O)SCC2	inactive

SMILES	percent span (inhibition)
O=C(OCC(=O)c1ccc[nH]1)c1ccccc1	inactive
Cc1cc(N2CCN(C)CC2)nc2ccc(NC(=S)N3CCN(c4ccc(F)cc4)CC3)cc12	inactive
Cn1c(CCNC(=O)C2CCCCC2)nc2cc(NC(=O)c3cccs3)ccc21	inactive
CC(C)c1ccc(C2CC(c3ccc(Br)cc3)=NN2C(N)=S)cc1 (centres undefined)	inactive
Cc1ccc(N=C2NC(=O)/C(=C/C=C/c3ccco3)S2)cc1	inactive
COc1ccc(-c2noc(COc3ccc4c(c3)OCO4)n2)cc1OC	inactive
Cc1cc(C)c2nc3nc(C)c(C)cc3c(N)c2c1	inactive
Cc1nc(=S)c2ccccc2[nH]1	inactive
CN(Cc1cccs1)C(=O)CCc1c[nH]c2ccccc12	inactive
Cc1sc2nc(C(C)C)nc(SCC(=O)N3c4ccccc4CC3C)c2c1C (centres undefined)	inactive
Cc1cc(C)nc(SCc2cc(=O)c(OC(=O)c3cccc([N+](=O)[O-])c3)co2)n1	inactive
c1ccc2c(N3CCOCC3)nc(N3CCOCC3)nc2c1	inactive
COc1ccc(S(=O)(=O)NCCOc2cccc3cccnc23)cc1OC	inactive
CCN1CCN(c2ccc(NC(=O)c3ccc4c(c3)[nH]c(=O)n4Cc3ccc(OC)cc3)cc2)CC1	inactive
O=C(O)C1=C[C@H](C2CC2)C[C@H](OCCCCO)O1	inactive
N#C/C(=C(/O)CN1CCN(c2ccccc2F)CC1)c1nc(-c2ccccc2)cs1	inactive
O=C1N/C(=C/c2cccn2-c2ccccc2)C(=O)N1Cc1ccc(F)cc1	inactive
C=CCSc1nc(N)c2c(C)c(C)sc2n1	inactive
O=C(N/N=C/c1ccncc1)c1cccc(NC(=O)c2ccccc2Cl)c1	inactive
Cc1ccc(NC(=O)C/C(N)=N/OC(=O)c2ccccc2)cc1	inactive
CN=c1scc(C)n1/N=C/c1ccc(O)c(O)c1O	inactive
COc1ccc(S(=O)(=O)NCCSc2ccc(Cl)cc2)cc1OC	inactive
COC(=O)c1cc(OC)c(OC)cc1NC(=O)Nc1cccc(C(C)=O)c1	inactive
